Experimental data: ChEMBL document CHEMBL4804281, “STK4 inhibitors for treatment of hematologic malignancies” (2020)
Calls of active or inactive are those of the source. No cut-off for these calls is given here.

Key:
[1] = biological target: Casein kinase I isoform gamma-2 (Homo sapiens) (UniProt P78368); experiment: Inhibition of CK1g2 in human NCI-H929 cells at 10 uM by mass spectroscopic analysis relative to control; format: cell-based
[2] = biological target: Dual specificity protein kinase CLK2 (Homo sapiens) (UniProt P49760); experiment: Inhibition of CLK2 in human NCI-H929 cells at 10 uM by mass spectroscopic analysis relative to control; format: cell-based
Sequence of Dual specificity protein kinase CLK2 (Homo sapiens) (P49760 whole entry, looked up): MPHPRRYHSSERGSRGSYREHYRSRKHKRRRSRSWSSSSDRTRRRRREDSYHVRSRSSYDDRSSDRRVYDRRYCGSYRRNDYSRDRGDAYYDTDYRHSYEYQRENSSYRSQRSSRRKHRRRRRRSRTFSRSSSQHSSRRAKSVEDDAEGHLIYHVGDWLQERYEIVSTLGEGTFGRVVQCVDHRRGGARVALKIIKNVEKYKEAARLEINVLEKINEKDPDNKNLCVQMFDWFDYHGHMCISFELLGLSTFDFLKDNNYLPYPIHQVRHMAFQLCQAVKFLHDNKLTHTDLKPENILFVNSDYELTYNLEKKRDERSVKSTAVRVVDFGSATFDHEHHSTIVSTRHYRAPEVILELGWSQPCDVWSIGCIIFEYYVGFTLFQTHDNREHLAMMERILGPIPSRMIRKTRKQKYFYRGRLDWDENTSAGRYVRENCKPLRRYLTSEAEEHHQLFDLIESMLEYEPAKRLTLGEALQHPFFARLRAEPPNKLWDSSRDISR

[3] = biological target: Mitogen-activated protein kinase kinase kinase kinase 5 (Homo sapiens) (UniProt Q9Y4K4); experiment: Inhibition of KHS1 in human NCI-H929 cells at 10 uM by mass spectroscopic analysis relative to control; format: cell-based
[4] = biological target: Serine/threonine-protein kinase 24 (Homo sapiens) (UniProt Q9Y6E0); experiment: Inhibition of MST3 in human NCI-H929 cells at 10 uM by mass spectroscopic analysis relative to control; format: cell-based
[5] = biological target: Ribosomal protein S6 kinase alpha-1 (Homo sapiens) (UniProt Q15418); experiment: Inhibition of RSK1 domain 1 in human NCI-H929 cells at 10 uM by mass spectroscopic analysis relative to control; format: cell-based
[6] = biological target: Ribosomal protein S6 kinase alpha-3 (Homo sapiens) (UniProt P51812); experiment: Inhibition of RSK2 domain 1 in human NCI-H929 cells at 10 uM by mass spectroscopic analysis relative to control; format: cell-based
[7] = biological target: Serine/threonine-protein kinase SMG1 (Homo sapiens) (UniProt Q96Q15); experiment: Inhibition of SMG1 in human NCI-H929 cells at 10 uM by mass spectroscopic analysis relative to control; format: cell-based
[8] = biological target: Activin receptor type-1 (Homo sapiens) (UniProt Q04771); experiment: Inhibition of ALK2 in human NCI-H929 cells at 10 uM by mass spectroscopic analysis relative to control; format: cell-based
Sequence of Activin receptor type-1 (Homo sapiens) (Q04771 whole entry): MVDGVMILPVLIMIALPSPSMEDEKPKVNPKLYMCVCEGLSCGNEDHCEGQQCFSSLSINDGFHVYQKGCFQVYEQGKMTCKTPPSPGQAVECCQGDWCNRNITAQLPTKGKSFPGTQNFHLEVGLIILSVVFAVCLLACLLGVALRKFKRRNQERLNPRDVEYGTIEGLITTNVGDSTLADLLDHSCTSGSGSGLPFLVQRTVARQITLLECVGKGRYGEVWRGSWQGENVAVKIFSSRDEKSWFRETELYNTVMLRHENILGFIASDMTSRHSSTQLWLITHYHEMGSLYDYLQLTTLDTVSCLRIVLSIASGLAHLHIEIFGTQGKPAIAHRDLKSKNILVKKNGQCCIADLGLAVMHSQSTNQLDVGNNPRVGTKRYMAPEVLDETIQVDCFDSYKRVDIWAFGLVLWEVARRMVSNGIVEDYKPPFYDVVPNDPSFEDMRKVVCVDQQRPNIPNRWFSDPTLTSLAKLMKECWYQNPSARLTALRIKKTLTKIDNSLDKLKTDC

[9] = biological target: Activin receptor type-1B (Homo sapiens) (UniProt P36896); experiment: Inhibition of ALK4 in human NCI-H929 cells at 10 uM by mass spectroscopic analysis relative to control; format: cell-based
Sequence of Activin receptor type-1B (Homo sapiens) (P36896 whole entry): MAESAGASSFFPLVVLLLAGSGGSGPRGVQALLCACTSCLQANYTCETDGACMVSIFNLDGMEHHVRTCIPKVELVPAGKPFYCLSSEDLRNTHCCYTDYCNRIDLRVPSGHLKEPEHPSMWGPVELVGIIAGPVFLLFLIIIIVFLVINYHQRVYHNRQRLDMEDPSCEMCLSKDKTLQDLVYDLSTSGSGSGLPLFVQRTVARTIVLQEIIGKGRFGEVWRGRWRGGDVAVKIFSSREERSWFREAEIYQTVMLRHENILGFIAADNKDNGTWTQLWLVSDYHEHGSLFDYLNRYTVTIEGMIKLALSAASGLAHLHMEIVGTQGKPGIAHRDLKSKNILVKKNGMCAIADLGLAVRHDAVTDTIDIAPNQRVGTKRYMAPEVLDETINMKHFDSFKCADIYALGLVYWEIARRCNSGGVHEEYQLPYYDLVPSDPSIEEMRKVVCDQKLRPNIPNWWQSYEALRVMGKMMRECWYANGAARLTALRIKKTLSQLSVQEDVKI

[10] = biological target: Activin receptor type-1C (Homo sapiens) (UniProt Q8NER5); experiment: Inhibition of ALK7 in human NCI-H929 cells at 10 uM by mass spectroscopic analysis relative to control; format: cell-based
[11] = biological target: Maternal embryonic leucine zipper kinase (Homo sapiens) (UniProt Q14680); experiment: Inhibition of MELK in human NCI-H929 cells at 10 uM by mass spectroscopic analysis relative to control; format: cell-based
[12] = biological target: Mitogen-activated protein kinase kinase kinase kinase 1 (Homo sapiens) (UniProt Q92918); experiment: Inhibition of HPK1 in human NCI-H929 cells at 10 uM by mass spectroscopic analysis relative to control; format: cell-based
[13] = biological target: T1, Inhibitor of nuclear factor kappa-B kinase subunit epsilon (Homo sapiens) (UniProt Q14164); experiment: Inhibition of IKKE in human NCI-H929 cells at 10 uM by mass spectroscopic analysis relative to control; format: cell-based
T1 sequence (whole entry): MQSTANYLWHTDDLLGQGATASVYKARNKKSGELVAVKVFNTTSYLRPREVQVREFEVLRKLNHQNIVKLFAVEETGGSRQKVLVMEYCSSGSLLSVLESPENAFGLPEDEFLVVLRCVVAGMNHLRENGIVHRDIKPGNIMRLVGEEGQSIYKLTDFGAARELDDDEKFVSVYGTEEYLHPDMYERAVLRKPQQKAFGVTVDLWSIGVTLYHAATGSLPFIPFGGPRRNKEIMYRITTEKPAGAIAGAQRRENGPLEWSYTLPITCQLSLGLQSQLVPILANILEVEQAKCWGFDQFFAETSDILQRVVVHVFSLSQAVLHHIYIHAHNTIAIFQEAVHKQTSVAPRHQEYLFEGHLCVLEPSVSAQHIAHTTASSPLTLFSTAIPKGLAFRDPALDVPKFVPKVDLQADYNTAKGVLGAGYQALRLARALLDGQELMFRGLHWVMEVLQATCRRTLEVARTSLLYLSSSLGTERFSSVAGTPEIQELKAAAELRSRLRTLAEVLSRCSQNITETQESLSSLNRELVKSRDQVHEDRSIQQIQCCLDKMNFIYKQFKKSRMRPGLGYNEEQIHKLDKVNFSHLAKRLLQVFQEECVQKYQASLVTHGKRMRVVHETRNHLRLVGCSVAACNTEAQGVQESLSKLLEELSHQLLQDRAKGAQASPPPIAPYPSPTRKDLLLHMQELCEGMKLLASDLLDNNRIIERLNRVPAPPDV

[14] = biological target: Serine/threonine-protein kinase 10 (Homo sapiens) (UniProt O94804); experiment: Inhibition of LOK in human NCI-H929 cells at 10 uM by mass spectroscopic analysis relative to control; format: cell-based
Sequence of Serine/threonine-protein kinase 10 (Homo sapiens) (O94804 whole entry, looked up): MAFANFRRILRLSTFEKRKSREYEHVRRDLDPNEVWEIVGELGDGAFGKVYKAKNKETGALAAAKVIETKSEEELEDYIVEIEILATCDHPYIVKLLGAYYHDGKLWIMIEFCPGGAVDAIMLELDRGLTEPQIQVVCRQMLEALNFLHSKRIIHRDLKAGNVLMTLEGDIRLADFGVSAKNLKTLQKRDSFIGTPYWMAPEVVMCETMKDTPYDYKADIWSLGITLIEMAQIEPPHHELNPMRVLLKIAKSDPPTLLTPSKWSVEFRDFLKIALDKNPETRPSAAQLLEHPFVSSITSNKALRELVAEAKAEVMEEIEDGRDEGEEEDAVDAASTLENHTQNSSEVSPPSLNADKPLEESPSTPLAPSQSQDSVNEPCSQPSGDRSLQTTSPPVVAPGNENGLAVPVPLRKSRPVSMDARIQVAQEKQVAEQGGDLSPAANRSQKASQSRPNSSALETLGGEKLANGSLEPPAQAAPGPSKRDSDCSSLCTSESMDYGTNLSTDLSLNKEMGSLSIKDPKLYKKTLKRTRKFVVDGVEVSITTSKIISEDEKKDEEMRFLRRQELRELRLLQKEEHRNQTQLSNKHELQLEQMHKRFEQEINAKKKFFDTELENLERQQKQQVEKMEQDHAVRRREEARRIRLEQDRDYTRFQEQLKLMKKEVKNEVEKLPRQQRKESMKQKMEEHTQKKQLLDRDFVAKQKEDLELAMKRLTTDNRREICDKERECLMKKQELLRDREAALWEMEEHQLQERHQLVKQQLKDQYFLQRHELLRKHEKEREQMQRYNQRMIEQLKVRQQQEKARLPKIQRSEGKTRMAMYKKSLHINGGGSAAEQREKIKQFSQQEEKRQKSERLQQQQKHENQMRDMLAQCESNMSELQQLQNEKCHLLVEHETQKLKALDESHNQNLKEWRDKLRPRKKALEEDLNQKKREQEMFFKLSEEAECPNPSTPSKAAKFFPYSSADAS

[15] = biological target: Mitogen-activated protein kinase kinase kinase 3 (Homo sapiens) (UniProt Q99759); experiment: Inhibition of MAP3K3 in human NCI-H929 cells at 10 uM by mass spectroscopic analysis relative to control; format: cell-based
[16] = biological target: NUAK family SNF1-like kinase 2 (Homo sapiens) (UniProt Q9H093); experiment: Inhibition of NuaK2 in human NCI-H929 cells at 10 uM by mass spectroscopic analysis relative to control; format: cell-based
[17] = biological target: Serine/threonine-protein kinase D2 (Homo sapiens) (UniProt Q9BZL6); experiment: Inhibition of PKD2 in human NCI-H929 cells at 10 uM by mass spectroscopic analysis relative to control; format: cell-based
[18] = biological target: Serine/threonine-protein kinase D3 (Homo sapiens) (UniProt O94806); experiment: Inhibition of PKD3 in human NCI-H929 cells at 10 uM by mass spectroscopic analysis relative to control; format: cell-based
Sequence of Serine/threonine-protein kinase D3 (Homo sapiens) (O94806 whole entry): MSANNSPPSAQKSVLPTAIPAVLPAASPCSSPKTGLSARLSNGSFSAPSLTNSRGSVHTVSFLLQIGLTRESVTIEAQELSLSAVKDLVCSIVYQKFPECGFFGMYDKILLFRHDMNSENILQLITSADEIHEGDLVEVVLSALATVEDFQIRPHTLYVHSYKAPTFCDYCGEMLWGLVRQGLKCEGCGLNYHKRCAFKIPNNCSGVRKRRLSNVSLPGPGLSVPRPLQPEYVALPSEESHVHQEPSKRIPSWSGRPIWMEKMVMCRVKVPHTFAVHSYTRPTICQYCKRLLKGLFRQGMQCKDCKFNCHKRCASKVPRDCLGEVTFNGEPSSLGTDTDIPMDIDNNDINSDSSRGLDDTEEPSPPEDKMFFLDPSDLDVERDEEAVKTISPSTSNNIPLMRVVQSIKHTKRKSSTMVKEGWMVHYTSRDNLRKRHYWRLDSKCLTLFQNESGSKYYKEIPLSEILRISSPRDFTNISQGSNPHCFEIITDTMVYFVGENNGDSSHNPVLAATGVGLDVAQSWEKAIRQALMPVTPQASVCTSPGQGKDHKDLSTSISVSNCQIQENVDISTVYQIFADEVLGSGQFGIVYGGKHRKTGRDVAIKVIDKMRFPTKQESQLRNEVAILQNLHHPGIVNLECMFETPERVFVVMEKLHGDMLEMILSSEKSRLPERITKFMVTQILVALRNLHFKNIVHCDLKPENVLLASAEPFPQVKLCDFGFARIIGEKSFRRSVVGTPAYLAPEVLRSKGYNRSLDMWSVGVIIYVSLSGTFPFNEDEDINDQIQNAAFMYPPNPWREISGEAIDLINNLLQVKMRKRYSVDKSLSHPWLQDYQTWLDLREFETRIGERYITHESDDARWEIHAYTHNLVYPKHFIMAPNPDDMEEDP

[19] = biological target: Interleukin-1 receptor-associated kinase 1 (Homo sapiens) (UniProt P51617); experiment: Inhibition of IRAK1 in human NCI-H929 cells at 10 uM by mass spectroscopic analysis relative to control; format: cell-based
[20] = biological target: Ribosomal protein S6 kinase alpha-4 (Homo sapiens) (UniProt O75676); experiment: Inhibition of MSK2 domain 1 in human NCI-H929 cells at 10 uM by mass spectroscopic analysis relative to control; format: cell-based
[21] = biological target: Phosphatidylinositol 5-phosphate 4-kinase type-2 alpha (Homo sapiens) (UniProt P48426); experiment: Inhibition of PIP4K2A in human NCI-H929 cells at 10 uM by mass spectroscopic analysis relative to control; format: cell-based
[22] = biological target: STE20-like serine/threonine-protein kinase (Homo sapiens) (UniProt Q9H2G2); experiment: Inhibition of SLK in human NCI-H929 cells at 10 uM by mass spectroscopic analysis relative to control; format: cell-based
Sequence of STE20-like serine/threonine-protein kinase (Homo sapiens) (Q9H2G2 whole entry, looked up, canonical isoform): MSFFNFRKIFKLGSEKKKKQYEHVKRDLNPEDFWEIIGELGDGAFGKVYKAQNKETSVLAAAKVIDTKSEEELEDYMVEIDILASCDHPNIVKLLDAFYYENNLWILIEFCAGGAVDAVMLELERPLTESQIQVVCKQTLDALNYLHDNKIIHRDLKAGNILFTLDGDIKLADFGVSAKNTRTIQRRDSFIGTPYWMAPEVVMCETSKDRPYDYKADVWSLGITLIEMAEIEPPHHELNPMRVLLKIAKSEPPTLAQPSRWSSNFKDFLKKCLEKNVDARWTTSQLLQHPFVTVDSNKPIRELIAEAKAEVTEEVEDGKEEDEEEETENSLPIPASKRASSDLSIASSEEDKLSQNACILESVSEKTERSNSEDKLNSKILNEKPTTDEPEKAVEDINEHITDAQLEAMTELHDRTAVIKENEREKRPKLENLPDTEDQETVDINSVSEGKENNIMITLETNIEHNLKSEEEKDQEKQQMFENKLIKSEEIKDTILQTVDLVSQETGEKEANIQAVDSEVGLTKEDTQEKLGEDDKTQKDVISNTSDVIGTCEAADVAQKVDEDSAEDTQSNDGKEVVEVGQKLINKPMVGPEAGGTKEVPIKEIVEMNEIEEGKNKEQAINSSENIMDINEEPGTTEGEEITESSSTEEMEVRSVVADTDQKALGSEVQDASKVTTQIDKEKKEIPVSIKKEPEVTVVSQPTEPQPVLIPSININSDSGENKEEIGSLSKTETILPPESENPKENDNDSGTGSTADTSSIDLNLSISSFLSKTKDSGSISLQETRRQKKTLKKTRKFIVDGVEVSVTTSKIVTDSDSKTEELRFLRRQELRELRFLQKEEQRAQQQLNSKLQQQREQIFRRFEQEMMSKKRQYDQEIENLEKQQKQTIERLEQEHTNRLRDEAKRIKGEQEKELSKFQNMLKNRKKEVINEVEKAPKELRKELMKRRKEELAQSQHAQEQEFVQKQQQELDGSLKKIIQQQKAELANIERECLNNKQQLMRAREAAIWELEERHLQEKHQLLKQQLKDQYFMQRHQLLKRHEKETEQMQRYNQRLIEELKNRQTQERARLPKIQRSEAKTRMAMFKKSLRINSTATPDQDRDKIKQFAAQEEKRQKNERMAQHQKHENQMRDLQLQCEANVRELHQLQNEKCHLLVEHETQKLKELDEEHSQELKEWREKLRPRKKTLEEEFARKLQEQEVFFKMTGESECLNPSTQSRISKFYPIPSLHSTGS

[23] = biological target: Casein kinase I isoform delta (Homo sapiens) (UniProt P48730); experiment: Inhibition of CK1d in human NCI-H929 cells at 10 uM by mass spectroscopic analysis relative to control; format: cell-based
[24] = biological target: Casein kinase I isoform epsilon (Homo sapiens) (UniProt P49674); experiment: Inhibition of CK1e in human NCI-H929 cells at 10 uM by mass spectroscopic analysis relative to control; format: cell-based
[25] = tested on: NCI-H929; experiment: Upregulation of YAP1 protein level in human NCI-H929 cells at 1 uM measured after 24 hrs by Western blot analysis; format: functional, cell-based
[26] = biological target: Aurora kinase A (Homo sapiens) (UniProt O14965); experiment: Inhibition of AURA in human NCI-H929 cells at 10 uM by mass spectroscopic analysis relative to control; format: cell-based
Sequence of Aurora kinase A (Homo sapiens) (O14965 whole entry): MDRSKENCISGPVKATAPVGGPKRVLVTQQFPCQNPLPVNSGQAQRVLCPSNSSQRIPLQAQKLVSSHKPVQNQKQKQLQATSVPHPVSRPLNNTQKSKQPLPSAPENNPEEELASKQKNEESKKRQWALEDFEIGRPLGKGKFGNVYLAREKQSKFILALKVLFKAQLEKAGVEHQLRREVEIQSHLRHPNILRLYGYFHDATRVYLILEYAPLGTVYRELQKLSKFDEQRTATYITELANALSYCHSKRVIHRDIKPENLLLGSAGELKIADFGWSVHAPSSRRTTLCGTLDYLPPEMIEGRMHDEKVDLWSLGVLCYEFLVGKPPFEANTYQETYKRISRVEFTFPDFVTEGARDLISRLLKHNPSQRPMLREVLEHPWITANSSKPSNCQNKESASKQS

SMILES | inhibition [1] [%] | inhibition [2] [%] | inhibition [3] [%] | inhibition [4] [%] | inhibition [5] [%] | inhibition [7] [%] | inhibition [8] [%] | inhibition [9] [%] | inhibition [10] [%] | inhibition [12] [%] | inhibition [13] [%] | inhibition [14] [%] | inhibition [15] [%] | inhibition [16] [%] | inhibition [17] [%] | inhibition [18] [%] | inhibition [19] [%] | inhibition [22] [%] | inhibition [23] [%] | inhibition [24] [%] | further results
Nc1ncc(-c2ccc(NS(=O)(=O)C3CC3)cc2OC2CCCCC2)cc1-c1ccc2c(c1)CCNC2=O | 50 | 50 | 50 | > 90 | < 75 | 50 | > 90 | > 90 | > 90 | – | – | – | – | – | – | – | – | – | – | – | inhibition [6]: 50%; inhibition [11]: 50%
Nc1ncc(-c2cccc3ncsc23)cc1-c1ccc2c(c1)CCNC2=O | – | – | – | – | – | 50 | – | – | – | 50 | 0 | 50 | 0 | 50 | 50 | 50 | – | – | – | – | –
COc1cc(NS(=O)(=O)C2CC2)ccc1-c1cnc(N)c(-c2ccc3c(c2)CCNC3=O)c1 | 75 | – | 0 | – | – | – | 75 | 75 | 75 | 0 | 0 | 0 | – | 0 | 50 | 0 | 0 | 50 | – | – | inhibition [20]: > 90%; inhibition [21]: > 90%
CN(C1CC1)S(=O)(=O)c1ccc(-c2cnc(N)c(-c3ccc4c(c3)CCNC4=O)c2)c(F)c1 | – | – | – | 50 | – | – | – | – | – | – | 0 | – | 0 | – | – | – | 50 | 50 | 50 | 50 | –
Nc1ncc(-c2cccc([N+](=O)[O-])c2F)cc1-c1ccc2c(c1)CCNC2=O | – | 0 | – | – | < 75 | – | – | – | – | – | 0 | – | – | – | – | – | – | – | > 90 | > 90 | Activity [25]: Active; inhibition [26]: < 90%
Nc1ncc(-c2ccc(NS(=O)(=O)C3CC3)cc2F)cc1-c1ccc2c(c1)CCNC2=O | – | – | – | – | – | – | – | – | – | – | 0 | – | – | – | – | – | – | – | – | – | inhibition [26]: < 75%
